# How the values were obtained:
# [1] = target: T1, Bromodomain-containing protein 4 [58-164] (Homo sapiens, UniProt O60885); experiment: Determination of the value of binding affinity constant (KO between the compound and BRD4 BD1 protein
# T1 construct: 58-164
# Method: The multifunctional microplate reader was a product of TECAN, model: SPARK 10M. Buffer: 100 mM potassium phosphate (pH 6.5), 2% ethylene glycol (Sigma) and 0.01% Trition X-100 (Sigma). The experimental water was Millipore-Q pure water.The specific experimental steps were as follows.First, the compound to be tested was dissolved in ethylene glycol to prepare into a 10 mM standard stock solution. Subsequently, the standard stock solution of the compound to be tested was diluted into a working sample solution with the buffer in an EP tube and ready for use. The concentration of the prepared working sample solution was 5 times of the highest sample concentration required on the test plate (5×test compound solution).[…] of a 5× test compound solution of a sample A was added to wells B1-B3 of a 96-well plate, and 40 μL of a 5× test compound solution of a sample B was added to wells B7-B9 of the 96-well plate, respectively. 20 uL of the buffer was added to the remaining wells, except for wells B1-B3 and B7-B9. Then, 20 uL of a solution was taken from wells B1-B3 to C1-C3, and this 2-fold dilution was repeated from C1-C3 until H4-H6; in the same way, 20 uL of a solution was taken from B7-B9 to C7-C9, this 2-fold dilution was repeated from C7-C9 until H10-H12.
# [2] = target: T2, Bromodomain-containing protein 4 [348-457] (Human, UniProt O60885); experiment: Determination of the value of binding affinity constant (KO between the compound and BRD4 BD2 protein
# T2 construct: 348-457
# Method: The multifunctional microplate reader was a product of TECAN, model: SPARK 10M. Buffer: 100 mM potassium phosphate (pH 6.5), 2% ethylene glycol (Sigma) and 0.01% Trition X-100 (Sigma). The experimental water was Millipore-Q pure water.The Ki value of the compound and BRD4 BD2 protein was measured according to the FP test procedures for detecting the Ki value of the compound and BRD4 BD1 protein except that the BRD4 BD1 protein was replaced with the BRD4 BD2 protein.
Structure (SMILES),Ki [1],Ki [2]
"CCCCN1CC=C(c2ccc3c(c2)C(Nc2cccc(Cl)c2)CCn2nnc(C)c2-3)CC1 (configuration not stated) [US12286435, Code BH108]",451 nM,24.3 nM
"COC(=O)Cc1ccc(NC2CCn3nnc(C)c3-c3ccc(-c4cnn(C)c4)cc32)cc1 (configuration not stated) [US12286435, Code LB38]",44.8 nM,9.29 nM
"Cc1nnn2c1-c1ccc(-c3cnn(C)c3)cc1C(Nc1cccc(CCO)c1)CC2 (configuration not stated) [US12286435, Code LB71]",92.2 nM,30.5 nM
"COC(=O)Cc1ccccc1NC1CCn2nncc2-c2ccc(-c3cnn(C)c3)cc21 (configuration not stated) [US12286435, Code LB175]",43.5 nM,18.6 nM
"Cc1nnn2c1-c1ccc(C3=CCNCC3)cc1C(Nc1c(F)cccc1Cl)CC2 (configuration not stated) [US12286435, Code LC198]",2980 nM,153 nM
"Cc1nnn2c1-c1ccc(C3=CCOCC3)cc1C(Nc1cccc(Cl)c1)CC2 (configuration not stated) [US12286435, Code LD31]",39.1 nM,17.1 nM

# — BindingDB's records for patent US12286435 (Bionna (Beijing) Medical Technology, 2025)
